Test systems include ACHN; CAKI-1; COLO 205; DU-145; EKVX; HCT-15; LOX IMVI; M14; MDA-MB-231; NCI-H226; NCI-H23; NCI-H460; NCI/ADR-RES; RPMI-8226; RXF 393; SN12C; SNB-75; SW-620; T47D; SK-MEL-28.
What all share (assay): inhibition of tumour cell growth, NCI panel, 48 h

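Following 48 hours of exposure in 96-well plates, responses at five concentrations were used to interpolate endpoints linearly. GI50 = concentration required for 50% inhibition of growth.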 Active and inactive are the calls of the source. Rule as the data show it: active = GI50 up to about 1.1 µM and inactive = higher.

Consider `Nc1ccn(C2CCC(CO)O2)c(=S)n1` (stereo not given), for which the GI50 with ACHN was > 100 µM (inactive); in the experiment with CAKI-1 it was > 100 µM (inactive); in the experiment on COLO 205 it was > 100 µM (inactive); in the experiment on DU-145 it was > 100 µM (inactive); with EKVX, > 100 µM (inactive); with HCT-15 it was > 100 µM. Further, the GI50 in the experiment on LOX IMVI, with M14, in the experiment on MDA-MB-231, with NCI-H226, in the experiment on NCI-H23 and in the experiment on NCI-H460 was > 100 µM (inactive) throughout. In addition, the GI50 was > 100 µM (inactive) in the experiment on NCI/ADR-RES; 35.8 µM (inactive) in the experiment on RPMI-8226; > 100 µM (inactive) with RXF 393; > 100 µM (inactive) in the experiment on SN12C; 89.5 µM (inactive) with SNB-75; > 100 µM (inactive) in the experiment on SW-620. Further, the GI50 in the experiment with T47D was > 100 µM (inactive).
Consider `O=[N+]([O-])c1ccc2nc(=S)[nH]n2c1`, for which the GI50 in the experiment on ACHN is > 100 µM (inactive); in the experiment on CAKI-1, > 100 µM (inactive); in the experiment on COLO 205 it was > 100 µM (inactive); with DU-145, > 100 µM (inactive); in the experiment on EKVX, > 100 µM (inactive); in the experiment with HCT-15, > 100 µM. Further, the GI50 with LOX IMVI, in the experiment on M14, in the experiment with MDA-MB-231, in the experiment on NCI-H226, with NCI-H23 and in the experiment on NCI-H460 was > 100 µM (inactive) in each case. Besides, the GI50 with NCI/ADR-RES, with RPMI-8226, in the experiment with RXF 393, in the experiment with SN12C, in the experiment on SNB-75 and with SW-620 was > 100 µM (inactive) each time. Further, the GI50 in the experiment on T47D was > 100 µM (inactive).
Regarding `Cc1nnc2c3c(-c4ccccc4)c(-c4ccccc4)oc3nc(N(C)C)n12`, the GI50 was 64.6 µM (inactive) in the experiment on ACHN; > 100 µM (inactive) in the experiment on CAKI-1; 64.4 µM (inactive) in the experiment with COLO 205; > 100 µM (inactive) in the experiment on DU-145; > 100 µM (inactive) in the experiment on EKVX; 23.7 µM in the experiment with HCT-15. For the same molecule, the GI50 in the experiment with LOX IMVI was 39.4 µM (inactive); with M14 it was 61.2 µM (inactive); in the experiment with MDA-MB-231 it was > 100 µM (inactive); with NCI-H226, 96.6 µM (inactive); in the experiment with NCI-H23 it was 54.5 µM (inactive); in the experiment with NCI/ADR-RES it was > 100 µM (inactive). Moreover, the GI50 in the experiment on RPMI-8226 was 20.1 µM (inactive); in the experiment on RXF 393 it was 73.5 µM (inactive); with SK-MEL-28 it was 72.1 µM (inactive); in the experiment with SNB-75, 15.5 µM (inactive); in the experiment on SW-620, 44.6 µM (inactive); in the experiment with T47D, 83.6 µM (inactive).
`Cn1c(N)c(Cc2ccc(Cl)cc2)c(=O)[nH]c1=O`: the GI50 with ACHN was > 100 µM (inactive); with CAKI-1 it was > 100 µM (inactive); in the experiment with COLO 205, > 100 µM (inactive); in the experiment on DU-145, > 100 µM (inactive); in the experiment with EKVX, > 100 µM (inactive); in the experiment with HCT-15 it was > 100 µM. Further, the GI50 in the experiment on LOX IMVI, in the experiment with M14, with MDA-MB-231, with NCI-H226, with NCI-H23 and with NCI/ADR-RES was > 100 µM (inactive) each time. Also, the GI50 with RPMI-8226 was > 100 µM (inactive); in the experiment on RXF 393, > 100 µM (inactive); in the experiment with SK-MEL-28, > 100 µM (inactive); in the experiment with SN12C, > 100 µM (inactive); in the experiment with SNB-75, 62.8 µM (inactive); in the experiment on SW-620 it was > 100 µM (inactive). Further, the GI50 in the experiment with T47D is > 100 µM (inactive).

The values are drawn from ChEMBL document CHEMBL1201862, “PubChem BioAssay data set” (2004).
